In DBAASP:
≈ marks a conversion by molar mass, not a printed value.

Legend:
Experiment in all cases: ≥ marks a high value that may be exact or a test limit, other limits are often not marked, values filed in µg/mL are converted to µM
[1] = system: Acinetobacter baumannii ATCC 19606
[2] = system: Acinetobacter baumannii Q13-0717
[3] = system: Campylobacter jejuni ATCC 33292
[4] = system: Campylobacter jejuni NCTC 11161
[5] = system: Campylobacter jejuni NCTC 11351
Campylobacter jejuni = system: Campylobacter jejuni
[6] = system: Enterococcus faecalis JH-2-2
Escherichia coli K-12 = system: Escherichia coli K-12
Escherichia coli = system: Escherichia coli
[7] = system: Klebsiella pneumoniae ATCC 700603
[8] = system: Klebsiella pneumoniae NCTC 13442
[9] = system: Klebsiella pneumoniae Q14-0095
[10] = system: Klebsiella pneumoniae Q14-0285
[11] = system: Listeria monocytogenes NCTC 11994
[12] = system: Pseudomonas aeruginosa ATCC 27853
[13] = system: Pseudomonas aeruginosa PAO1
[14] = system: Pseudomonas aeruginosa Q12-0535
[15] = system: Pseudomonas aeruginosa Q14-0208
[16] = system: Pseudomonas aeruginosa Q14-0890
[17] = system: Salmonella typhimurium SL1344
[18] = system: Staphylococcus aureus ATCC 33591
[19] = system: Staphylococcus aureus ATCC 6538
[20] = system: Staphylococcus aureus MRSA-15
[21] = system: Staphylococcus aureus NCTC 12493
[22] = system: Staphylococcus aureus RN4220
[23] = system: Staphylococcus aureus USA 300
Bacillus cereus = system: Bacillus cereus
[24] = system: Candida albicans 08022710
[25] = system: Candida albicans 08030102
[26] = system: Candida albicans 08030401
[27] = system: Candida albicans 08030809
Candida glabrata 08A802 = system: Candida glabrata 08A802
[28] = system: Candida glabrata 09050201
[29] = system: Enterococcus faecalis 981
[30] = system: Enterococcus faecium 1299
[31] = system: Escherichia coli ATCC 25922
Klebsiella oxytoca = system: Klebsiella oxytoca
[32] = system: Klebsiella pneumoniae 1400
Nocardia asteroides = system: Nocardia asteroides
[33] = system: Pseudomonas aeruginosa 08031014
[34] = system: Salmonella enterica subsp. enterica serovar Paratyphi A
Shigella sp. = system: Shigella sp.
[35] = system: Staphylococcus aureus 08032706
[36] = system: Staphylococcus aureus 08032712
[37] = system: Staphylococcus aureus 08032810
[38] = system: Staphylococcus aureus ATCC 25923
[39] = system: Staphylococcus epidermidis
[40] = system: Stenotrophomonas maltophilia

## CC[C@H](C)[C@H](NC(=O)[C@H](CCCCN)NC(=O)[C@H](CO)NC(=O)[C@H](Cc1c[nH]c2ccccc12)NC(=O)[C@H](CCCN=C(N)N)NC(=O)[C@H](CC(N)=O)NC(=O)[C@H](CCCN=C(N)N)NC(=O)[C@H](CCCN=C(N)N)NC(=O)[C@@H]1CCCN1C(=O)[C@@H](N)CC(C)C)C(=O)N[C@@H](Cc1c[nH]c2ccccc12)C(=O)N[C@@H](CCCCN)C(=O)N[C@@H](CCCCN)C(=O)N[C@H](C(=O)N[C@H](C(=O)N[C@H](C(=O)N[C@H](C(=O)N[C@@H](Cc1ccccc1)C(=O)N[C@@H](CO)C(=O)O)C(C)C)[C@@H](C)O)C(C)C)C(C)C [LPRRNRWSKIWKKVVTVFS]
[1]
  MIC: 9.42 µM (≈ 22.6 µg/mL)
[2]
  MIC: 1.67 µM (≈ 4 µg/mL)
[3]
  MIC: 1.67 µM (≈ 4 µg/mL)
[4]
  MIC: 1.67 µM (≈ 4 µg/mL)
[5]
  MIC: 26.7 µM (≈ 64 µg/mL)
Campylobacter jejuni
  MIC: 26.7 µM (≈ 64 µg/mL)
[6]
  MIC: 13.3 µM (≈ 32 µg/mL)
Escherichia coli K-12
  MIC: 13.3 µM (≈ 32 µg/mL)
Escherichia coli
  MIC: 26.7 µM (≈ 64 µg/mL)
[7]
  MIC: 6.66 µM (≈ 16 µg/mL)
[8]
  MIC: 6.66 µM (≈ 16 µg/mL)
[9]
  MIC: 13.3 µM (≈ 32 µg/mL)
[10]
  MIC: 6.66 µM (≈ 16 µg/mL)
[11]
  MIC: 13.3 µM (≈ 32 µg/mL)
[12]
  MIC: 26.7 µM (≈ 64 µg/mL)
[13]
  MIC: 13.3 µM (≈ 32 µg/mL)
[14]
  MIC: 26.7 µM (≈ 64 µg/mL)
[15]
  MIC: 6.66 µM (≈ 16 µg/mL)
[16]
  MIC: 13.3 µM (≈ 32 µg/mL)
[17]
  MIC: 13.3 µM (≈ 32 µg/mL)
[18]
  MIC: 6.66 µM (≈ 16 µg/mL)
[19]
  MIC: 13.3 µM (≈ 32 µg/mL)
[20]
  MIC: 13.3 µM (≈ 32 µg/mL)
[21]
  MIC: 6.66 µM (≈ 16 µg/mL)
[22]
  MIC: 13.3 µM (≈ 32 µg/mL)
[23]
  MIC: 3.33 µM (≈ 8 µg/mL)

## CC[C@H](C)[C@H](NC(=O)[C@H](CCCN=C(N)N)NC(=O)[C@H](Cc1c[nH]c2ccccc12)NC(=O)CNC(=O)[C@H](Cc1ccc(O)cc1)NC(=O)[C@H](CCCN=C(N)N)NC(=O)[C@H](CCCN=C(N)N)NC(=O)[C@H](C)NC(=O)[C@H](Cc1ccccc1)NC(=O)[C@H](CCCN=C(N)N)NC(=O)CNC(=O)[C@H](C)NC(=O)CNC(=O)[C@H](CCCN=C(N)N)NC(=O)[C@@H](NC(=O)[C@H](Cc1ccccc1)NC(=O)[C@H](CCCN=C(N)N)NC(=O)[C@H](CCCN=C(N)N)NC(=O)[C@H](Cc1c[nH]c2ccccc12)NC(=O)[C@H](CCCN=C(N)N)NC(=O)[C@H](CO)NC(=O)[C@H](CCCN=C(N)N)NC(=O)[C@@H](N)[C@@H](C)O)[C@@H](C)CC)C(=O)N[C@@H](C)C(=O)N[C@@H](CC(C)C)C(=O)NCC(=O)N[C@@H](CC(C)C)C(=O)N[C@H](C(=O)NCC(=O)O)C(C)C [TRSRWRRFIRGAGRFARRYGWRIALGLVG]
Bacillus cereus
  MIC: 2.69 µM (≈ 9.38 µg/mL)
[24]
  MIC: 5.37 µM (≈ 18.8 µg/mL)
[25]
  MIC: 5.37 µM (≈ 18.8 µg/mL)
[26]
  MIC: 2.69 µM (≈ 9.38 µg/mL)
[27]
  MIC: 5.37 µM (≈ 18.8 µg/mL)
Candida glabrata 08A802
  MIC: 2.69 µM (≈ 9.38 µg/mL)
[28]
  MIC: 5.37 µM (≈ 18.8 µg/mL)
[29]
  MIC: 10.7 µM (≈ 37.5 µg/mL)
[30]
  MIC: 5.37 µM (≈ 18.8 µg/mL)
[31]
  MIC: 5.37 µM (≈ 18.8 µg/mL)
Escherichia coli
  MIC: 5.37 µM (≈ 18.8 µg/mL)
Klebsiella oxytoca
  MIC: 5.37 µM (≈ 18.8 µg/mL)
[32]
  MIC: 7.49 µM (≈ 26.2 µg/mL)
Nocardia asteroides
  MIC: 2.69 µM (≈ 9.38 µg/mL)
[33]
  MIC: 2.69 µM (≈ 9.38 µg/mL)
[12]
  MIC: 5.37 µM (≈ 18.8 µg/mL)
[34]
  MIC: 10.7 µM (≈ 37.5 µg/mL)
Shigella sp.
  MIC: 1.34 µM (≈ 4.69 µg/mL)
[35]
  MIC: 5.37 µM (≈ 18.8 µg/mL)
[36]
  MIC: 5.37 µM (≈ 18.8 µg/mL)
[37]
  MIC: 5.37 µM (≈ 18.8 µg/mL)
[38]
  MIC: 5.37 µM (≈ 18.8 µg/mL)
[39]
  MIC: 5.37 µM (≈ 18.8 µg/mL)
[40]
  MIC: 5.37 µM (≈ 18.8 µg/mL)
